According to patent US20250221948A1, “Complex of 3-hydroxybutyric acid and sodium 3-hydroxybutyrate and preparation method thereof” (priority 2022, published 2025):

Assay: Determination of moisture contents with KF moisture meter at different time points (hygroscopicity)
Type: physicochemical
Details: not given
From the text: For R-3-hydroxybutyric acid, sodium R-3-hydroxybutyrate, Mixture of R-3-hydroxybutyric acid and sodium R-3-hydroxybutyrate, as well as R-3-hydroxybutyric acid·sodium R-3-hydroxybutyrate complex of Examples 1-6, under a certain condition, KF moisture meter was used to determine the moisture contents at different time points.
For 3-hydroxybutyric acid, sodium 3-hydroxybutyrate, mixture of 3-hydroxybutyric acid and sodium 3-hydroxybutyrate, as well as 3-hydroxybutyric acid·sodium 3-hydroxybutyrate complex of Examples 7-9, under a certain condition, KF moisture meter was used to determine the moisture contents at different time points.
For S-3-hydroxybutyric acid, sodium S-3-hydroxybutyrate, mixture of S-3-hydroxybutyric acid and sodium S-3-hydroxybutyrate, as well as S-3-hydroxybutyric acid·sodium S-3-hydroxybutyrate complex of Examples 10-12, under a certain condition, KF moisture meter was used to determine the moisture contents at different time points.

SMILES | hygroscopicity of the complex compared with the acid, the sodium salt and their mixture
CC(O)CC(=O)O (stereo not shown) [3-hydroxybutyric acid • sodium 3-hydroxybutyrate complex] [3-hydroxybutyric acid·sodium 3-hydroxybutyrate] | obviously superior
C[C@@H](O)CC(=O)O [R-3-hydroxybutyric acid • sodium R-3-hydroxybutyrate complex] [R-3-hydroxybutyric acid·sodium R-3-hydroxybutyrate] | obviously superior
C[C@H](O)CC(=O)O [S-3-hydroxybutyric acid·sodium S-3-hydroxybutyrate] | obviously superior

Same assay, conditions: easy to deliquesce

SMILES | hygroscopicity of the solid acid
CC(O)CC(=O)O (stereo not shown) [3-hydroxybutyric acid] | strong hygroscopicity
C[C@@H](O)CC(=O)O [R-3-hydroxybutyric acid] | strong hygroscopicity
C[C@H](O)CC(=O)O [S-3-hydroxybutyric acid] | strong hygroscopicity

Same assay, conditions: summary of Tables 2A-2C

SMILES | moisture content of the complex compared with the acid, the sodium salt and their mixture
CC(O)CC(=O)O (stereo not shown) [3-hydroxybutyric acid • sodium 3-hydroxybutyrate complex] [3-hydroxybutyric acid·sodium 3-hydroxybutyrate] | significantly lower
C[C@@H](O)CC(=O)O [R-3-hydroxybutyric acid • sodium R-3-hydroxybutyrate complex] [R-3-hydroxybutyric acid·sodium R-3-hydroxybutyrate] | significantly lower
C[C@H](O)CC(=O)O [S-3-hydroxybutyric acid·sodium S-3-hydroxybutyrate] | significantly lower

Same assay, conditions: temperature 23° C., humidity 92.5%, 30 min

SMILES | moisture content (%)
CC(O)CC(=O)O (stereo not shown) [3-hydroxybutyric acid • sodium 3-hydroxybutyrate complex] [3-hydroxybutyric acid·sodium 3-hydroxybutyrate] | 0.61%
CC(O)CC(=O)O (stereo not shown) [3-hydroxybutyric acid] | 1.32%
C[C@@H](O)CC(=O)O [R-3-hydroxybutyric acid • sodium R-3-hydroxybutyrate complex] [R-3-hydroxybutyric acid·sodium R-3-hydroxybutyrate] | 0.54%
C[C@@H](O)CC(=O)O [R-3-hydroxybutyric acid] | 1.13%
C[C@H](O)CC(=O)O [S-3-hydroxybutyric acid] | 1.23%
C[C@H](O)CC(=O)O [S-3-hydroxybutyric acid·sodium S-3-hydroxybutyrate] | 0.71%
CC(O)CC(=O)[O-].[Na+] (stereo not shown) [Sodium 3-hydroxybutyrate, sodium 3-hydroxybutyrate] | 1.15%
C[C@@H](O)CC(=O)[O-].[Na+] [Sodium R-3-hydroxybutyrate, sodium R-3-hydroxybutyrate] | 1.04%
C[C@H](O)CC(=O)[O-].[Na+] [Sodium S-3-hydroxybutyrate, sodium S-3-hydroxybutyrate] | 1.09%

Same assay, conditions: temperature 23° C., humidity 92.5%, 1 h

SMILES | moisture content (%)
CC(O)CC(=O)O (stereo not shown) [3-hydroxybutyric acid • sodium 3-hydroxybutyrate complex] [3-hydroxybutyric acid·sodium 3-hydroxybutyrate] | 1.18%
CC(O)CC(=O)O (stereo not shown) [3-hydroxybutyric acid] | 2.37%
C[C@@H](O)CC(=O)O [R-3-hydroxybutyric acid • sodium R-3-hydroxybutyrate complex] [R-3-hydroxybutyric acid·sodium R-3-hydroxybutyrate] | 1.02%
C[C@@H](O)CC(=O)O [R-3-hydroxybutyric acid] | 2.25%
C[C@H](O)CC(=O)O [S-3-hydroxybutyric acid] | 2.28%
C[C@H](O)CC(=O)O [S-3-hydroxybutyric acid·sodium S-3-hydroxybutyrate] | 1.38%
CC(O)CC(=O)[O-].[Na+] (stereo not shown) [Sodium 3-hydroxybutyrate, sodium 3-hydroxybutyrate] | 2.19%
C[C@@H](O)CC(=O)[O-].[Na+] [Sodium R-3-hydroxybutyrate, sodium R-3-hydroxybutyrate] | 2.01%
C[C@H](O)CC(=O)[O-].[Na+] [Sodium S-3-hydroxybutyrate, sodium S-3-hydroxybutyrate] | 2.07%

Same assay, conditions: temperature 23° C., humidity 92.5%, 2 h

SMILES | moisture content (%)
CC(O)CC(=O)O (stereo not shown) [3-hydroxybutyric acid • sodium 3-hydroxybutyrate complex] [3-hydroxybutyric acid·sodium 3-hydroxybutyrate] | 2.05%
CC(O)CC(=O)O (stereo not shown) [3-hydroxybutyric acid] | 4.15%
C[C@@H](O)CC(=O)O [R-3-hydroxybutyric acid • sodium R-3-hydroxybutyrate complex] [R-3-hydroxybutyric acid·sodium R-3-hydroxybutyrate] | 1.96%
C[C@@H](O)CC(=O)O [R-3-hydroxybutyric acid] | 3.96%
C[C@H](O)CC(=O)O [S-3-hydroxybutyric acid] | 4.05%
C[C@H](O)CC(=O)O [S-3-hydroxybutyric acid·sodium S-3-hydroxybutyrate] | 1.85%
CC(O)CC(=O)[O-].[Na+] (stereo not shown) [Sodium 3-hydroxybutyrate, sodium 3-hydroxybutyrate] | 3.62%
C[C@@H](O)CC(=O)[O-].[Na+] [Sodium R-3-hydroxybutyrate, sodium R-3-hydroxybutyrate] | 3.39%
C[C@H](O)CC(=O)[O-].[Na+] [Sodium S-3-hydroxybutyrate, sodium S-3-hydroxybutyrate] | 3.49%

Same assay, conditions: temperature 23° C., humidity 92.5%, 4 h

SMILES | moisture content (%)
CC(O)CC(=O)O (stereo not shown) [3-hydroxybutyric acid • sodium 3-hydroxybutyrate complex] [3-hydroxybutyric acid·sodium 3-hydroxybutyrate] | 3.38%
CC(O)CC(=O)O (stereo not shown) [3-hydroxybutyric acid] | 6.59%
C[C@@H](O)CC(=O)O [R-3-hydroxybutyric acid • sodium R-3-hydroxybutyrate complex] [R-3-hydroxybutyric acid·sodium R-3-hydroxybutyrate] | 3.26%
C[C@@H](O)CC(=O)O [R-3-hydroxybutyric acid] | 6.46%
C[C@H](O)CC(=O)O [S-3-hydroxybutyric acid] | 6.32%
C[C@H](O)CC(=O)O [S-3-hydroxybutyric acid·sodium S-3-hydroxybutyrate] | 3.28%
CC(O)CC(=O)[O-].[Na+] (stereo not shown) [Sodium 3-hydroxybutyrate, sodium 3-hydroxybutyrate] | 5.35%
C[C@@H](O)CC(=O)[O-].[Na+] [Sodium R-3-hydroxybutyrate, sodium R-3-hydroxybutyrate] | 5.23%
C[C@H](O)CC(=O)[O-].[Na+] [Sodium S-3-hydroxybutyrate, sodium S-3-hydroxybutyrate] | 5.32%

Same assay, conditions: temperature 23° C., humidity 92.5%, 6 h

SMILES | moisture content (%)
CC(O)CC(=O)O (stereo not shown) [3-hydroxybutyric acid • sodium 3-hydroxybutyrate complex] [3-hydroxybutyric acid·sodium 3-hydroxybutyrate] | 4.99%
CC(O)CC(=O)O (stereo not shown) [3-hydroxybutyric acid] | 9.68%
C[C@@H](O)CC(=O)O [R-3-hydroxybutyric acid • sodium R-3-hydroxybutyrate complex] [R-3-hydroxybutyric acid·sodium R-3-hydroxybutyrate] | 4.89%
C[C@@H](O)CC(=O)O [R-3-hydroxybutyric acid] | 9.52%
C[C@H](O)CC(=O)O [S-3-hydroxybutyric acid] | 9.53%
C[C@H](O)CC(=O)O [S-3-hydroxybutyric acid·sodium S-3-hydroxybutyrate] | 4.79%
CC(O)CC(=O)[O-].[Na+] (stereo not shown) [Sodium 3-hydroxybutyrate, sodium 3-hydroxybutyrate] | 7.54%
C[C@@H](O)CC(=O)[O-].[Na+] [Sodium R-3-hydroxybutyrate, sodium R-3-hydroxybutyrate] | 7.35%
C[C@H](O)CC(=O)[O-].[Na+] [Sodium S-3-hydroxybutyrate, sodium S-3-hydroxybutyrate] | 7.46%

Same assay, conditions: temperature 23° C., humidity 92.5%, 7 h

SMILES | moisture content (%)
CC(O)CC(=O)O (stereo not shown) [3-hydroxybutyric acid • sodium 3-hydroxybutyrate complex] [3-hydroxybutyric acid·sodium 3-hydroxybutyrate] | 5.52%
CC(O)CC(=O)O (stereo not shown) [3-hydroxybutyric acid] | 10.71%
C[C@@H](O)CC(=O)O [R-3-hydroxybutyric acid • sodium R-3-hydroxybutyrate complex] [R-3-hydroxybutyric acid·sodium R-3-hydroxybutyrate] | 5.39%
C[C@@H](O)CC(=O)O [R-3-hydroxybutyric acid] | 10.56%
C[C@H](O)CC(=O)O [S-3-hydroxybutyric acid] | 10.62%
C[C@H](O)CC(=O)O [S-3-hydroxybutyric acid·sodium S-3-hydroxybutyrate] | 5.32%
CC(O)CC(=O)[O-].[Na+] (stereo not shown) [Sodium 3-hydroxybutyrate, sodium 3-hydroxybutyrate] | 8.35%
C[C@@H](O)CC(=O)[O-].[Na+] [Sodium R-3-hydroxybutyrate, sodium R-3-hydroxybutyrate] | 8.04%
C[C@H](O)CC(=O)[O-].[Na+] [Sodium S-3-hydroxybutyrate, sodium S-3-hydroxybutyrate] | 8.15%

Same assay, conditions: temperature 23° C., humidity 92.5%, 11 h

SMILES | moisture content (%)
CC(O)CC(=O)O (stereo not shown) [3-hydroxybutyric acid • sodium 3-hydroxybutyrate complex] [3-hydroxybutyric acid·sodium 3-hydroxybutyrate] | 8.73%
CC(O)CC(=O)O (stereo not shown) [3-hydroxybutyric acid] | 17.33%
C[C@@H](O)CC(=O)O [R-3-hydroxybutyric acid • sodium R-3-hydroxybutyrate complex] [R-3-hydroxybutyric acid·sodium R-3-hydroxybutyrate] | 8.65%
C[C@@H](O)CC(=O)O [R-3-hydroxybutyric acid] | 17.22%
C[C@H](O)CC(=O)O [S-3-hydroxybutyric acid] | 17.08%
C[C@H](O)CC(=O)O [S-3-hydroxybutyric acid·sodium S-3-hydroxybutyrate] | 8.43%
CC(O)CC(=O)[O-].[Na+] (stereo not shown) [Sodium 3-hydroxybutyrate, sodium 3-hydroxybutyrate] | 12.86%
C[C@@H](O)CC(=O)[O-].[Na+] [Sodium R-3-hydroxybutyrate, sodium R-3-hydroxybutyrate] | 12.68%
C[C@H](O)CC(=O)[O-].[Na+] [Sodium S-3-hydroxybutyrate, sodium S-3-hydroxybutyrate] | 12.73%

Same assay, conditions: temperature 23° C., humidity 92.5%, 22 h

SMILES | moisture content (%)
CC(O)CC(=O)O (stereo not shown) [3-hydroxybutyric acid • sodium 3-hydroxybutyrate complex] [3-hydroxybutyric acid·sodium 3-hydroxybutyrate] | 17.63%
CC(O)CC(=O)O (stereo not shown) [3-hydroxybutyric acid] | 33.51%
C[C@@H](O)CC(=O)O [R-3-hydroxybutyric acid • sodium R-3-hydroxybutyrate complex] [R-3-hydroxybutyric acid·sodium R-3-hydroxybutyrate] | 17.45%
C[C@@H](O)CC(=O)O [R-3-hydroxybutyric acid] | 33.34%
C[C@H](O)CC(=O)O [S-3-hydroxybutyric acid] | 32.95%
C[C@H](O)CC(=O)O [S-3-hydroxybutyric acid·sodium S-3-hydroxybutyrate] | 16.93%
CC(O)CC(=O)[O-].[Na+] (stereo not shown) [Sodium 3-hydroxybutyrate, sodium 3-hydroxybutyrate] | 24.95%
C[C@@H](O)CC(=O)[O-].[Na+] [Sodium R-3-hydroxybutyrate, sodium R-3-hydroxybutyrate] | 24.68%
C[C@H](O)CC(=O)[O-].[Na+] [Sodium S-3-hydroxybutyrate, sodium S-3-hydroxybutyrate] | 24.53%

Assay: Stability of the solids at different temperatures
Type: physicochemical
Details: 30° C.

SMILES | Stability
C[C@H](O)CC(=O)O [S-3-hydroxybutyric acid] | unchanged
C[C@H](O)CC(=O)[O-].[Na+] [Sodium S-3-hydroxybutyrate, sodium S-3-hydroxybutyrate] | unchanged

Same assay, conditions: 40° C.

SMILES | Stability
C[C@H](O)CC(=O)[O-].[Na+] [Sodium S-3-hydroxybutyrate, sodium S-3-hydroxybutyrate] | unchanged

Same assay, conditions: 50° C.

SMILES | Stability
C[C@H](O)CC(=O)O [S-3-hydroxybutyric acid] | melted
C[C@H](O)CC(=O)[O-].[Na+] [Sodium S-3-hydroxybutyrate, sodium S-3-hydroxybutyrate] | unchanged

Assay: Stability of the solids at different temperatures
Type: physicochemical
Details: not given
Experimental: For R-3-hydroxybutyric acid, sodium R-3-hydroxybutyrate, mixture of R-3-hydroxybutyric acid and sodium R-3-hydroxybutyrate, as well as R-3-hydroxybutyric acid·sodium R-3-hydroxybutyrate complex of Examples 1-6, the stability was measured at 60° C., 70° C. and 80° C., and the experimental results are shown in Table 3A.
For 3-hydroxybutyric acid, sodium 3-hydroxybutyrate, mixture of 3-hydroxybutyric acid and sodium 3-hydroxybutyrate, as well as 3-hydroxybutyric acid·sodium 3-hydroxybutyrate complex of Examples 7-9, the stability was measured at 60° C., 70° C. and 80° C., and the experimental results are shown in Table 3B.
For S-3-hydroxybutyric acid, sodium S-3-hydroxybutyrate, mixture of S-3-hydroxybutyric acid and sodium S-3-hydroxybutyrate, as well as S-3-hydroxybutyric acid·sodium S-3-hydroxybutyrate complex of Examples 10-12, the stability was measured at 60° C., 70° C. and 80° C., and the experimental results are shown in Table 3C.

SMILES | Stability | stability of the complex
CC(O)CC(=O)O (stereo not shown) [3-hydroxybutyric acid • sodium 3-hydroxybutyrate complex] [3-hydroxybutyric acid·sodium 3-hydroxybutyrate] | unchanged | very high
C[C@@H](O)CC(=O)O [R-3-hydroxybutyric acid • sodium R-3-hydroxybutyrate complex] [R-3-hydroxybutyric acid·sodium R-3-hydroxybutyrate] | unchanged | very high
C[C@H](O)CC(=O)O [S-3-hydroxybutyric acid·sodium S-3-hydroxybutyrate] | unchanged | very high
CC(O)CC(=O)[O-].[Na+] (stereo not shown) [Sodium 3-hydroxybutyrate, sodium 3-hydroxybutyrate] | unchanged | 
C[C@@H](O)CC(=O)[O-].[Na+] [Sodium R-3-hydroxybutyrate, sodium R-3-hydroxybutyrate] | unchanged | 

Same assay, conditions: 60° C.

SMILES | Stability
C[C@H](O)CC(=O)O [S-3-hydroxybutyric acid] | melted
C[C@H](O)CC(=O)[O-].[Na+] [Sodium S-3-hydroxybutyrate, sodium S-3-hydroxybutyrate] | unchanged

Same assay, conditions: 70° C.

SMILES | Stability
C[C@H](O)CC(=O)O [S-3-hydroxybutyric acid] | melted
C[C@H](O)CC(=O)[O-].[Na+] [Sodium S-3-hydroxybutyrate, sodium S-3-hydroxybutyrate] | unchanged

Same assay, conditions: 80° C.

SMILES | Stability
C[C@H](O)CC(=O)O [S-3-hydroxybutyric acid] | melted
C[C@H](O)CC(=O)[O-].[Na+] [Sodium S-3-hydroxybutyrate, sodium S-3-hydroxybutyrate] | unchanged
